The results in this text go back to patent US6337074B1, “Anti-herpesviral agent” (priority 1996, dated 2002).

In one data set the target is T1, UL54/UL102 interaction (Human cytomegalovirus, UniProt P08546).
T1 construct: made in house; host or cells: Spodoptera frugiperda (Sf) cells infected with recombinant baculoviruses AcUL54 and AcUL102
Kind of data set: UL54/UL102 interaction ELISA, inhibition by UL102 peptides. The class given is binding, HCMV. As to the method: UL54/UL102 interaction assays. ELISA assays, similar to those described for HSV-1 POL/UL8 (see Example 1 above) were established with purified HCMV UL54 and UL102 proteins. […] The wells were again extensively washed and bound antibody was detected with 50 μl/well of HRP-conjugated protein A (Sigma) diluted 1:500 in PBS containing 2% FCS. After further washes, chromogenic substrate ABTS was added.
Inhibition of the UL54/UL102 interaction by UL102 peptides. […] To do this, the peptides listed in Table 4 were tested for their ability to block the interaction of HCMV UL102 with HCMV UL54. […] The amount of UL54 bound was determined after 1 h by measuring the absorbance at 405 nm as described. The absorbance in the absence of any peptide, 1.061±0.033, was determined from six wells. The background absorbance in the absence of any UL54, 0.240±0.025, was also determined from six wells and was subtracted from all values. […] The concentration of each peptide required to reduce UL54-binding by 50% (the IC50 value) was determined and is listed in Table 4.
In general terms: In an ELISA, binding on a coated surface is turned into a signal by an enzyme label.

The target of data set [1] is T2, POL/UL8 interaction (Human herpesvirus 1, UniProt P04293).
T2 construct: made in house; host or cells: Spodoptera frugiperda (Sf) cells infected with recombinant baculoviruses AcUL30 and AcUL8
T2 sequence (P04293 whole entry): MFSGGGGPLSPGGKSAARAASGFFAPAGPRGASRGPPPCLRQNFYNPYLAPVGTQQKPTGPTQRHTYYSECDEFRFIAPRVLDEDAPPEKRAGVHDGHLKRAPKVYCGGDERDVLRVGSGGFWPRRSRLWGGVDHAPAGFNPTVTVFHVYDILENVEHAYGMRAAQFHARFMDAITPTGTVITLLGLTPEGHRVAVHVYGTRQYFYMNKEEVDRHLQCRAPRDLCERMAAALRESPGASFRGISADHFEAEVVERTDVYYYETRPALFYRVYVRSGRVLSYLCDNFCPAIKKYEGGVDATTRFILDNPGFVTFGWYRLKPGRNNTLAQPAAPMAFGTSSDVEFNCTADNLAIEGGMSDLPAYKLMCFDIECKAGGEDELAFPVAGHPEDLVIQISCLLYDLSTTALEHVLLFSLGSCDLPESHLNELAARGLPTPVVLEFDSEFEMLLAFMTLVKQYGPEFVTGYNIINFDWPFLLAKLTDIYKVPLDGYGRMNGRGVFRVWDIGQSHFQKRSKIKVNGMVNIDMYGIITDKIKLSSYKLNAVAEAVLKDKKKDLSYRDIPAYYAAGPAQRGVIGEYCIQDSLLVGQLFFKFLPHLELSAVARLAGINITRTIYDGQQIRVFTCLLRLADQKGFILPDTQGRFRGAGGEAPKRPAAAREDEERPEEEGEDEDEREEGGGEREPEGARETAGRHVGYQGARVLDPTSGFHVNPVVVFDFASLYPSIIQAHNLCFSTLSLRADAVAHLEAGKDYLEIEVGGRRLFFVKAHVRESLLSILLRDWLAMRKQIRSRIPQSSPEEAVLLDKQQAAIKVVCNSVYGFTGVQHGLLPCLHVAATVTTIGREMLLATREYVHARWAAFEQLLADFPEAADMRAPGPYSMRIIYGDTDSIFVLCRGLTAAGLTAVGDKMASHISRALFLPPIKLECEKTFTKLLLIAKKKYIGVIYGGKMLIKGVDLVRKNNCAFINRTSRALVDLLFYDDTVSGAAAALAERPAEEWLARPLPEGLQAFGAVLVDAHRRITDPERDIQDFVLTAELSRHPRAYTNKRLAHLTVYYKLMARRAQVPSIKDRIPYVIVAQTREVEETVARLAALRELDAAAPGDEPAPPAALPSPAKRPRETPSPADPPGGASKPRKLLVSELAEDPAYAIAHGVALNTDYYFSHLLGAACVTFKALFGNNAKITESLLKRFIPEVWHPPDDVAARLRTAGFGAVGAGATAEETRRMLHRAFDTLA
Briefly: biochemical. As to conditions: for Inhibition of the POL/UL8 interaction (in words): FIG. 6. The class given is binding, HSV-1. From the text:
POL/UL8 interaction assays. ELISA assays, similar to that described for POL/UL42 (Marsden et al., 1994) were established with purified POL and UL8 proteins. POL was extracted from Sf cells infected with recombinant baculovirus AcUL30 and purified as described by Gottlieb et al. (1990) with minor modifications (Marsden et al., 1994). UL8 protein was extracted from Sf cells infected with recombinant baculovirus AcUL8 and purified as described by Parry et al., (1993) but substituting phenyl-Sepharose by hydroxylapatite chromatography (Dodson and Lehman, 1991). Both proteins were diluted in PBS to the required concentrations. For the first assay, microtiter wells were coated overnight with 0.02 μg of purified POL and blocked with 100 μl of 2% BSA in PBS for 1 h at 37° C. After blocking, the plates were washed extensively with PBS containing 0.3% Tween 20 and blotted dry. Then 50 μl of purified UL8, at the concentrations indicated in the text, were added to each well and incubated for 1 h at 37° C. […] The wells were again extensively washed and bound MAb was detected with 50 μl/well of HRP-conjugated goat anti-mouse IgG (Sigma) diluted 1:500 in PBS containing 2% FCS and chromogenic substrate ABTS. For the second assay, POL and UL8 proteins were added in the reverse order. Microtitre wells were coated overnight with 0.02 to 0.04 μg of purified UL8 protein and bound POL was detected with a POL-specific MAB 13185 (Marsden et al., 1996) diluted 1:100. Other aspects of the two assays were identical. MAbs, diluted in PBS plus 2% fetal calf serum, and peptides, diluted in 100 mM Tris-HCl (pH 8.0) plus 0.1% Tween 20, were added to the interaction assay as described in the text.
Inhibition of the POL/UL8 interaction by UL8 peptides. […] Peptides were dissolved in 100 mM Tris-HCl (pH 8.0) plus 0.1% Tween 20 at different concentrations and incubated with POL for 15 min to allow the peptides to bind to POL. The mixtures were then added to microtiter wells coated with UL8 and the amount of POL bound was determined after 1 h. […] The concentration of each peptide required to reduce POL binding by 50% (the IC50 value) was determined in at least 3, and on average 5, independent experiments.
The jumbled peptide, 7J, was made by linking residues from alternately the N- and C-termini of peptide 7. Thus, if the order of the 20 residues in peptide 7 is represented as 1, 2, 3, . . . 18, 19, 20, that in 7J was 1, 20, 2, 19, . . . […].
We next investigated whether the preincubation step was necessary.

A short description of data set [2]: Solubility of peptides in assay buffer. The class given is physicochemical. The following applies: 100 mM Tris-HCl (pH 8.0) plus 0.1% Tween 20.
For data set [3], the target named is T2, POL/UL8 interaction. Briefly: biochemical. The class given is binding, HSV-1. The following applies: IC50 value for inhibition of the POL/UL8 interaction, FIG. 8; no pre-incubation, peptide added a few seconds after POL.
[4] abbreviates: IC50 value for inhibition of the POL/UL8 interaction, experiment shown in FIG. 7, 15 min pre-incubation with POL.

Read-outs that look alike come from different tables or passages of the source. No end group written: not given here.

T1 sequence (P08546 whole entry): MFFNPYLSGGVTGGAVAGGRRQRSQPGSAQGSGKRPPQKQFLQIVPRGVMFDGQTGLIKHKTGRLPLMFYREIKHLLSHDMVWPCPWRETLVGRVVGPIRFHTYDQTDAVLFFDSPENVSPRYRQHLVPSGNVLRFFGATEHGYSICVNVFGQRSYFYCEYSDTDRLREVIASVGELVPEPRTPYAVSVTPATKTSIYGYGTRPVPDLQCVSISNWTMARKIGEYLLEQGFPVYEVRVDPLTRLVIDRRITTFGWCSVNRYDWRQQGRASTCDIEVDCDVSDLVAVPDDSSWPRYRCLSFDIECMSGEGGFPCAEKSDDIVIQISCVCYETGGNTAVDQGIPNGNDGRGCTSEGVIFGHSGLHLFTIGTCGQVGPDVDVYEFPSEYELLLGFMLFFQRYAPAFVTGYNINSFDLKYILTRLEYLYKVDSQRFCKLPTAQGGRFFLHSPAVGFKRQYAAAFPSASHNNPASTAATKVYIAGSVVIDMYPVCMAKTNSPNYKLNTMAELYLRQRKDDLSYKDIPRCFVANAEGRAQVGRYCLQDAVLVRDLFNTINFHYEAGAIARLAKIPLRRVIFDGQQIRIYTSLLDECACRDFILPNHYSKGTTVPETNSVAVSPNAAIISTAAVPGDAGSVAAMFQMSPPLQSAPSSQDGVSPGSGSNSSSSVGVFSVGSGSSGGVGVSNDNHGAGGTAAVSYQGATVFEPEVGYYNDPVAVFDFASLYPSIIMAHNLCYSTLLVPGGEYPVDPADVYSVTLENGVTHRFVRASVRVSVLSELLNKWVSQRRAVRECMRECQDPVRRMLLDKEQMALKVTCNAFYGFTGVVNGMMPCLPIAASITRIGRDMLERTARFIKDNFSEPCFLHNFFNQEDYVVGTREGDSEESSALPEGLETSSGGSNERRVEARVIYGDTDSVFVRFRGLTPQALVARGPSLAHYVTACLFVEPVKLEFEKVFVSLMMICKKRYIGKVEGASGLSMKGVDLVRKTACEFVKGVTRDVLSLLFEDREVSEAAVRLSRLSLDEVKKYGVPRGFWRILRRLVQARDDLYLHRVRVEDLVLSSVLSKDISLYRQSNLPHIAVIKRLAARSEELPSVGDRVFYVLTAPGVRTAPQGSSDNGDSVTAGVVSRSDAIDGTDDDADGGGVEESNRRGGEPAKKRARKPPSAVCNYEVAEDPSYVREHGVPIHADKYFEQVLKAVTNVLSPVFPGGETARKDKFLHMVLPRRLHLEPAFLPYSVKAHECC

A word on the IC50: it is the point on the concentration scale where inhibition reaches its midpoint. Read a high IC50 as weaker potency. As to `CC[C@H](C)[C@H](NC(=O)[C@@H]1CCCN1C(=O)[C@H](CCC(=O)O)NC(=O)[C@H](CCCCN)NC(=O)[C@H](CCC(=O)O)NC(=O)[C@H](CC(C)C)NC(=O)[C@H](CCC(N)=O)NC(=O)[C@H](Cc1ccc(O)cc1)NC(=O)[C@H](Cc1c[nH]c2ccccc12)NC(=O)[C@H](CC(C)C)NC(=O)[C@H](CCCCN)NC(=O)[C@@H](N)C(C)C)C(=O)N[C@H](C(=O)NCC(=O)N[C@@H](C)C(=O)O)C(C)C` [Peptide RT85, reference compound], the IC50 against UL54/UL102 interaction was greater than 200 µM; against POL/UL8 interaction [1] it was greater than 250 µM.
Consider “VFTGVLAGVWGEGGKFVYPFDDKMSFLFA [Peptide 5]”, for which, at POL/UL8 interaction [1], it took 66 ± 22 µM to reach half-maximal inhibition (IC50) and the “Inhibition of the POL/UL8 interaction (in words)” value is on record as “markedly inhibitory”. The “Solubility (in words)” value in data set [2] is recorded as “limited solubility”.
As to IELVFTGVLAGVWGEGGKFV [Peptide 7], the IC50 against POL/UL8 interaction [1] was 2.3 ± 2.2 µM; at POL/UL8 interaction [1] (IC50 value for inhibition of the POL/UL8 interaction, FIG. 8, peptide pre-incubated with POL for 15 min), roughly 1 µM; against POL/UL8 interaction [1] (setting [4]), roughly 1 µM; against POL/UL8 interaction [3] it was roughly 1 µM. Besides, the “Inhibition of the POL/UL8 interaction (in words)” value on POL/UL8 interaction [1] is “markedly inhibitory”. Also, the “Solubility (in words)” value in data set [2] is “limited solubility”.
Compound VLAGVWGEGGKFVYPFDDKMSFLFA [Peptide 3] returned a 50% inhibitory concentration (IC50) against POL/UL8 interaction [1] greater than 250 µM.
With “IVEFLKVGFGTEGGVWLVAG [Peptide 7J, reference compound]”, the IC50 at POL/UL8 interaction [1] and on POL/UL8 interaction [1] (setting [4]) was greater than 20 µM throughout.
EILREIELVFTGVLA [Peptide 8]: the IC50 on POL/UL8 interaction [1] was greater than 250 µM.
Still for that read-out and setting: as for TGVLAGVWGEGGKFV [Peptide 6], the figure is greater than 250 µM; as for TGVLAGVWGEGGKFVYPFDDKMSFLFA [Peptide 4], greater than 250 µM.
